Assay results reported in patent US20230416412A1, “PREVENTION OR MITIGATION OF T-CELL ENGAGING AGENT-RELATED ADVERSE EFFECTS” (Hoffmann-La Roche Inc., priority 2022, published 2023).

Legend:
cytokine release = assay: CD20-TCB-mediated cytokine release in vivo, serum cytokines by Luminex; set-up: species or system humanized NSG mice; settings: 3 hrs after first CD20-TCB treatment
Method: FIGS. 5A-5E. Effect of the NLRP3 inhibitor on IL-2, IFN-γ, TNF-α, IL-1β, and IL-6 induced by CD20-TCB. Treatment was performed as described in FIG. 4. Blood was collected by tail-vein bleedings 3 hrs after the 1st CD20-TCB therapy. The levels of FIG. 5A. IL-2, FIG. 5B. IFN-γ, FIG. 5C. TNF-α, FIG. 5D. IL-1β, and FIG. 5E. IL-6 were measured in the serum by Luminex. Means of n=5 mice+/−SEM.
FIG. 6. Heatmap representing the effects of the NLRP3 inhibitor on CD20-TCB mediated cytokine release. Treatment was performed as described in FIG. 4. Blood was collected by tail-vein bleeding 3 hrs after the 1st CD20-TCB therapy. The levels of IFN-γ, IL-2, TNF-α, IP-10, IL-1β, IL-1Ra, IL-6, IL-8, MCP-1, MIP-1α and MIP-1β were measured in serum by Luminex for n=5 mice per group.
The effects of the NLRP3 inhibitor on anti-tumor efficacy and cytokine release mediated by CD20-TCB in vivo were evaluated using a diffused large B cell lymphoma (DLBCL) tumor model in humanized NSG mice. Briefly, humanized NSG mice were engrafted with OCI-LY18 tumor cells. When the tumor volume reached 200 mm^3, mice were randomized in groups of 14 based on their tumor size. They were then pre-treated with 30 mg/kg obinutuzumab (Gazyva® pre-treatment, GpT) 7 days before being treated with CD20-TCB to deplete peripheral B cells. The NLRP3 inhibitor was given 1 hr before and 4 and 24 hrs after the first CD20-TCB treatment as well as 1 hr before and 4 hrs after the second CD20-TCB treatment.
The levels of cytokines were measured in serum collected by tail-vein bleedings 3 hrs after the first treatment with CD20-TCB to determine the effects of the NLRP3 inhibitor on CD20-TCB-mediated cytokine release in vivo. In line with previous in vitro findings, the NLRP3 inhibitor retained IL-2, IFN-γ, TNF-α while reducing IL-6, IL-8 and IL-1β levels induced by CD20-TCB (FIGS. 5A-E, FIG. 6). In addition, the NLRP3 inhibitor modified the cytokine profile induced by CD20-TCB treatment, as indicated by the heat map showing the levels of IFN-γ, IL-2, TNF-α, […], IL-1Ra, IL-6, IL-8, MCP-1, MIP-1α and […] which were measured 3 hrs after the first treatment with CD20-TCB (FIG. 6). Last, we measured the body weight of each animal before and after the first treatment with CD20-TCB to calculate the body weight change. […] (FIG. 7).

OCI-LY18 tumor cells = assay: Anti-tumor efficacy of CD20-TCB in DLBCL tumor model in humanized NSG mice; type: in vivo; settings: 20 mg/kg NLRP3 inhibitor i.p.
Method: FIGS. 4A-4B. Effect of the NLRP3 inhibitor on CD20-TCB-mediated anti-tumor efficacy. OCI-Ly18-bearing humanized NSG mice were pre-treated with 30 mg/kg obinutuzumab (Gazyva® pre-treatment, Gpt, dotted black arrow) and then treated with escalating doses of CD20-TCB (black arrows, 0.5 mg/kg on the 1st treatment, 1 mg/kg on the 2nd treatment and 2 mg/kg on the 3rd treatment) by intravenous (i.v.) injections. 20 mg/kg NLRP3 inhibitor (grey arrows) was given by intraperitoneal injections 1 hr before, 4 hrs and 24 hrs after the 1st CD20-TCB therapy as well as 1 hr before and 4 hrs after the 2nd CD20-TCB therapy. FIG. 4A. Tumor growth inhibition curves, means−/+SD. Tumor volumes were calculated from caliper measurements conducted 2 or 3 times per week. FIG. 4B. […] Tumors were digested and the counts of CD8+ T cells were measured by flow cytometry.
(§1) The effects of the NLRP3 inhibitor on anti-tumor efficacy and cytokine release mediated by CD20-TCB in vivo were evaluated using a diffused large B cell lymphoma (DLBCL) tumor model in humanized NSG mice. […]
To assess the effects of the NLRP3 inhibitor on tumor growth, tumor volumes were calculated from caliper measurements twice or three times per week. Furthermore, the counts of CD8+ T cells were measured by flow cytometry in tumors collected 24 hrs after the third treatment with CD20-TCB.

[1] = tested on: cytokine release in whole blood; assay: Whole blood assay: CD20-TCB-mediated cytokine release, serum cytokines by Luminex; type: cell-based, human
Method: (§2) FIGS. 1A-1N. Effect of the NLRP3 inhibitor on CD20-TCB-mediated T cell activation, B cell depletion and cytokine release. Fresh whole blood from a healthy donor (donor 1) was incubated with escalating doses of CD20-TCB and 10 μM NLRP3 inhibitor. At 24 hrs, blood from technical replicates was pooled and lysed. FIG. 1A. The killing of CD19+ B cells was measured by flow cytometry. FIG. 1B and FIG. 1C. The expression of CD25 on CD4+ (1B) and CD8+ (1C) T cells was measured by flow cytometry. At 24 hrs, serum from technical replicates were collected and pooled. FIG. 1D-FIG. 1N. The levels of IFN-γ (1D), IL-2 (1E), IL-1β (1F), IL-1Ra (1G), TNF-α (1H), IP-10 (1I), IL-6 (1J), IL-8 (1K), MCP-1 (1L), MIP-1α (1M) and MIP-1β (1N) were measured by Luminex.
(§3) FIGS. 2A-2N. Effect of the NLRP3 inhibitor on CD20-TCB-mediated T cell activation, B cell depletion and cytokine release. Fresh whole blood from a healthy donor (donor 2) was incubated with escalating doses of CD20-TCB and 10 μM NLRP3 inhibitor. At 24 hrs, blood from technical replicates was pooled and lysed. FIG. 2A. The killing of CD19+ B cells was measured by flow cytometry. FIG. 2B and FIG. 2C. The expression of CD25 on CD4+ (FIG. 2B) and CD8+ (FIG. 2C) T cells was measured by flow cytometry. At 24 hrs, serum from technical replicates were collected and pooled. FIG. 2D-FIG. 2N. The levels of IFN-γ (2D), IL-2 (2E), IL-1β (2F), IL-1Ra (2G), TNF-α (2H), IP-10 (2I), IL-6 (2J), IL-8 (2K), MCP-1 (2L), MIP-1α (2M) and MIP-1β (2N) were measured by Luminex.
(§4) FIGS. 3A-3N. Effect of the NLRP3 inhibitor on CD20-TCB-mediated T cell activation, B cell depletion and cytokine release. Fresh whole blood from a healthy donor (donor 3) was incubated with escalating doses of CD20-TCB and […] NLRP3 inhibitor. At 24 hrs, blood from technical replicates was pooled and lysed. FIG. 3A. The killing of CD19+ B cells was measured by flow cytometry. FIG. 3B and FIG. 3C. The expression of CD25 on CD4+ (3B) and CD8+ (3C) T cells was measured by flow cytometry. At 24 hrs, serum from technical replicates were collected and pooled. FIG. 3D-FIG. 3N. The levels of IFN-γ (3D), IL-2 (3E), IL-1β (3F), IL-1Ra (3G), TNF-α (3H), IP-10 (3I), IL-6 (3J), IL-8 (3K), MCP-1 (3L), MIP-1α (3M) and MIP-1β (3N) were measured by Luminex.
(§5) To assess the effects of the NLRP3 inhibitor on TCB-mediated target cell killing and T cell activation, we conducted whole blood assays using fresh whole blood from 3 healthy donors incubated with escalating concentrations of CD20-TCB (SEQ ID NOs 4-23) in combination with 10 μM of the NLRP3 inhibitor (MCC950, Sigma-Aldrich). At 24 hrs, the killing of CD19+ B cells together with the expression of CD25 on CD4+ and CD8+ T cells was measured in whole blood by flow cytometry.
The levels of cytokines were measured by Luminex in the serum of whole blood treated with CD20-TCB in the presence and in the absence of the NLRP3 inhibitor to determine the effects of the NLRP3 inhibitor on cytokine release.

[2] = Body weight change after first CD20-TCB therapy; type: in vivo, humanized NSG mice; settings: before and after the first CD20-TCB treatment, 20 mg/kg NLRP3 inhibitor i.p.
Method: FIG. 7. Effect of the NLRP3 inhibitor on body weight loss induced by the first CD20-TCB therapy. Treatment was performed as described in FIG. 4. The body weight of each animal was measured before and after the first therapy with CD20-TCB to calculate body weight change [%]. Means+/−SEM.
as §1, with “mice. Briefly, humanized NSG mice were engrafted with OCI-LY18 tumor cells. When the tumor volume reached 200 mm^3, mice were randomized in groups of 14 based on their tumor size.” for “mice.”
The levels of cytokines were measured in serum collected by tail-vein bleedings 3 hrs after the first treatment with CD20-TCB to determine the effects of the NLRP3 inhibitor on CD20-TCB-mediated cytokine release in vivo. […] In addition, the NLRP3 inhibitor modified the cytokine profile induced by CD20-TCB treatment, as indicated by the heat map showing the levels of IFN-γ, IL-2, TNF-α, […], IL-1Ra, IL-6, IL-8, MCP-1, MIP-1α and […] which were measured 3 hrs after the first treatment with CD20-TCB (FIG. 6). Last, we measured the body weight of each animal before and after the first treatment with CD20-TCB to calculate the body weight change. […]

CD19+ B cells = assay: Whole blood assay: CD20-TCB-induced killing of CD19+ B cells (flow cytometry); type: cell-based, human; settings: 10 μM NLRP3 inhibitor, escalating CD20-TCB, fresh whole blood of 3 healthy donors, 24 hrs
Method: as §2
FIGS. 2A-2N. Effect of the NLRP3 inhibitor on CD20-TCB-mediated T cell activation, B cell depletion and cytokine release. […] The killing of CD19+ B cells was measured by flow cytometry. […] The expression of CD25 on CD4+ (FIG. 2B) and CD8+ (FIG. 2C) T cells was measured by flow cytometry. […] The levels of IFN-γ (2D), IL-2 (2E), IL-1β (2F), IL-1Ra (2G), TNF-α (2H), IP-10 (2I), IL-6 (2J), IL-8 (2K), MCP-1 (2L), MIP-1α (2M) and MIP-1β (2N) were measured by Luminex.
FIGS. 3A-3N. […] The killing of CD19+ B cells was measured by flow cytometry. […] The expression of CD25 on CD4+ (3B) and CD8+ (3C) T cells was measured by flow cytometry. […]

CD4+ and CD8+ T cells = assay: Whole blood assay: CD20-TCB-induced T cell activation, CD25 expression (flow cytometry); type: cell-based, human; settings: 10 μM NLRP3 inhibitor, 24 hrs
Method: as §2, §3, §4, §5

[3] = 10 μM NLRP3 inhibitor with CD20-TCB, whole blood serum, 24 hrs, 3 donors
[4] = 10 μM NLRP3 inhibitor with CD20-TCB, whole blood serum, 24 hrs, in all 3 donors

## CC(C)(O)c1coc(S(=O)(=O)NC(=O)Nc2c3c(cc4c2CCC4)CCC3)c1 [NLRP3 inhibitor, MCC950]
Cytokine release; 20 mg/kg NLRP3 inhibitor i.p.
  serum IFN-γ level induced by CD20-TCB: retained
  serum IL-1β level induced by CD20-TCB: reducing
  serum IL-2 level induced by CD20-TCB: retained
  serum IL-6 level induced by CD20-TCB: reducing
  serum IL-8 level induced by CD20-TCB: reducing
  serum TNF-α level induced by CD20-TCB: retained
Cytokine release; 11 cytokines in serum
  cytokine profile induced by CD20-TCB treatment (heat map): modified
OCI-LY18 tumor cells; obinutuzumab pre-treatment, CD20-TCB 0.5, 1, 2 mg/kg i.v. weekly
  anti-tumor efficacy mediated by CD20-TCB (tumor volume): did not interfere
OCI-LY18 tumor cells; 24 hrs after the third CD20-TCB treatment, flow cytometry
  CD8+ T cell infiltration in tumors: did not interfere
[1]; [3]
  level of IFN-γ: did not influence
  level of IL-1Ra: did not influence
  level of IL-2: did not influence
  level of IP-10: did not influence
  level of MCP-1: did not influence
  level of MIP-1α: did not influence
  level of MIP-1β: did not influence
  level of TNF-α: did not influence
[1]; 10 μM NLRP3 inhibitor with CD20-TCB, whole blood serum, 24 hrs, in 2 out of 3 donors
  level of IL-6: reduced
[1]; [4]
  level of IL-1β: reduced
  level of IL-8: reduced
[1]; general statement
  TCB-induced cytokine release: reduce
[2]
  body weight loss induced by CD20-TCB: prevented body weight loss
CD19+ B cells
  CD20-TCB-induced B cell depletion (percentage of CD19+ B cells among CD45+ cells): minimally interfered
CD19+ B cells; listed as MCC950
  CD20-TCB-induced B cell depletion (percentage of CD19+ B cells among CD45+ cells): retaining
CD4+ and CD8+ T cells
  T cell activation induced by CD20-TCB: did not interfere
CD4+ and CD8+ T cells; listed as MCC950
  T cell activation induced by CD20-TCB: retaining
CD4+ and CD8+ T cells; escalating CD20-TCB, 3 donors
  expression of the activation marker CD25 on CD4+ T cells: did not prevent
  expression of the activation marker CD25 on CD8+ T cells: did not prevent
